According to ChEMBL document CHEMBL3763068, “Recent developments of 2-aminothiazoles in medicinal chemistry” (Eur J Med Chem, 2016):

What was measured:
[1] = tested on: Human immunodeficiency virus 1; experiment: Antiviral activity against HIV1 3B coinfected with HTLV in human PBMC assessed as inhibition of viral p24 antigen production after 7 days by ELISA; assay type: functional, organism-based; settings: Human immunodeficiency virus 1, 3B, 168 h
[2] = Selectivity index, ratio of CC50 for human PBMC to IC50 for HIV1 3B; assay type: functional
[3] = Antiprion activity against […] RML PrPSc infected in mouse N2A cells after 6 days by ELISA; assay type: cell-based; settings: 144 h
[4] = Drug uptake in po dosed mouse brain measured after 3 days; assay type: ADME, organism-based; settings: read-out: Drug uptake
[5] = Cytotoxicity against human Hep3B cells assessed as growth inhibition after 48 hrs by MTT assay; assay type: functional, cell-based, Hep 3B2
[6] = molecular target: High affinity nerve growth factor receptor (Homo sapiens, UniProt P04629); experiment: Inhibition of human recombinant N-terminal His6-tagged TRKA cytoplasmic domain (residues 440)
Chain of High affinity nerve growth factor receptor (P04629 whole entry, the tested form may be a part): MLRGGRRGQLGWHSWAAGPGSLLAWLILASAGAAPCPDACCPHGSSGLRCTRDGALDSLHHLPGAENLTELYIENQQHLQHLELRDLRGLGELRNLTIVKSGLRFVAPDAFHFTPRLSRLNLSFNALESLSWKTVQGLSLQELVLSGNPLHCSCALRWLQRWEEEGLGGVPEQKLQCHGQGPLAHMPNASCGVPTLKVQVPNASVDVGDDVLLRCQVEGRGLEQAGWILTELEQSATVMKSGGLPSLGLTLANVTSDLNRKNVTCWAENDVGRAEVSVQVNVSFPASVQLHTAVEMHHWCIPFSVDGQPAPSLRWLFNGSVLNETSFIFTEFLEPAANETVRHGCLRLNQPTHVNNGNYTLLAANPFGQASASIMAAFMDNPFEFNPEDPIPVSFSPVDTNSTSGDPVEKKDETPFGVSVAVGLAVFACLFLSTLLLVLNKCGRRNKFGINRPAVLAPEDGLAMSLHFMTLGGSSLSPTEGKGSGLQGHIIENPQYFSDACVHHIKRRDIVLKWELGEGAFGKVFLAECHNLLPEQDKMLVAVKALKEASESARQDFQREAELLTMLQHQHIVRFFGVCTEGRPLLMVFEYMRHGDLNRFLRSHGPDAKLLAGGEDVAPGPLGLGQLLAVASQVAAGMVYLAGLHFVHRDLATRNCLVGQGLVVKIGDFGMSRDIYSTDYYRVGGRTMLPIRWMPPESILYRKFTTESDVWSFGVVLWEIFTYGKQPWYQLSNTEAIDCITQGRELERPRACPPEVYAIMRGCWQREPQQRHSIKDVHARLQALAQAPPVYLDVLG

S=C(NCCOc1ccccc1)Nc1nccs1
IC50 [1]: < 1 nM
Ratio CC50/IC50 [2]: >100000

Cc1ccc(Nc2nc(-c3cc(-c4ccccc4)no3)cs2)nc1
EC50 [3]: 940 nM
concentration at 72 h [4]: 25 µM

O=C(CCc1ccco1)Nc1nc(-c2ccccc2)cs1
IC50 [5]: 40 nM
IC50 [6]: 13 nM

S=C(NCc1ccco1)Nc1nccs1
IC50 [1]: < 1 nM
Ratio CC50/IC50 [2]: >100000
